Assays:
[1] = system: ZR-75-30; experiment: Cell growth inhibition assay (methylene blue-based); conditions: Homo sapiens, continuous exposure 4 or 7 days, at least three experiments
Description: (§1) The following human breast cancer cell lines were obtained from the ATCC. Cells were maintained according to ATCC-recommended culture conditions. AU565 (ATCC Catalog No. ATCC Catalog No. CRL-2351), BT-20 (ATCC Catalog No. HTB-19), MCF7 (ATCC Catalog No. HTB22), MDA-MB-231 (ATCC Catalog No. HTB-26), MDA-MB-435 (ATCC Catalog No. HTB-129), MDA-MB-468 (ATCC Catalog No. HTB-132), HCC38 (ATCC Catalog No. CRL-2314), HCC70 (ATCC Catalog No. CRL-2315), HCC1143 (ATCC Catalog No. CRL-2321), HCC1428 (ATCC Catalog No. CRL-2327), HCC1500 (ATCC Catalog No. CRL-2329), HCC1806 (ATCC Catalog No. CRL-2335), HCC1954 (ATCC Catalog No. CRL-2338), HCC2218 (ATCC Catalog No. CRL-2343), UACC-812 (ATCC Catalog No. CRL-1897), UACC-893 (ATCC Catalog No. CRL-1902), ZR-75-1 (ATCC Catalog No. CRL-1500), ZR-75-30 (ATCC Catalog No. CRL-1504).
(§2) Cultured human breast cancer cells were placed in 96-well plates and grown in the continuous presence of test compounds for 4 or 7 days. To expose the cells to test compounds for 7 days, medium was replaced with fresh medium containing compounds after 4 days of exposure and cells were incubated for 3 additional days. Cell growth was assessed using modifications (Amin et al., Cancer Res., 47:6040-6045, 1987; incorporated herein by reference) of a methylene blue-based microculture assay (Finlay et al., Anal. Biochem., 139:272-277, 1984; incorporated herein by reference).
(§3) To investigate the possible expression of PgP by the cell lines used in this study, the antiproliferative effects of paclitaxel were determined in the presence and absence of verapamil, a known inhibitor of PgP.

[2] = system: HC-2218; experiment: as above; conditions: Homo sapiens, continuous exposure 4 or 7 days, at least three experiments
Description: as §1, §2, §3

[3] = system: MDA-MB-435; experiment: as above; conditions: Homo sapiens, continuous exposure 4 or 7 days, at least three experiments
Description: as §1, §2, §3

[4] = system: HCC70; experiment: as above; conditions: Homo sapiens, continuous exposure 4 or 7 days, at least three experiments
Description: as §1, §2, §3

[5] = system: HCC1954; experiment: as above; conditions: Homo sapiens, continuous exposure 4 or 7 days, at least three experiments
Description: as §1, §2, §3

[6] = system: HCC1428; experiment: as above; conditions: Homo sapiens, continuous exposure 4 or 7 days, at least three experiments
Description: as §1, §2, §3

[7] = system: HCC1500; experiment: as above; conditions: Homo sapiens, continuous exposure 4 or 7 days, at least three experiments
Description: as §1, §2, §3

[8] = system: MDA-MB-468; experiment: as above; conditions: Homo sapiens, continuous exposure 4 or 7 days, at least three experiments
Description: as §1, §2, §3

[9] = system: UACC-812; experiment: as above; conditions: Homo sapiens, continuous exposure 4 or 7 days, at least three experiments
Description: as §1, §2, §3

[10] = system: HCC1806; experiment: as above; conditions: Homo sapiens, continuous exposure 4 or 7 days, at least three experiments
Description: as §1, §2, §3

[11] = system: AU565; experiment: as above; conditions: Homo sapiens, continuous exposure 4 or 7 days, at least three experiments
Description: as §1, §2, §3

[12] = system: HCC1143; experiment: as above; conditions: Homo sapiens, continuous exposure 4 or 7 days, at least three experiments
Description: as §1, §2, §3

[13] = system: MDA-MB-231; experiment: as above; conditions: Homo sapiens, continuous exposure 4 or 7 days, at least three experiments
Description: as §1, §2, §3

[14] = system: MCF-7; experiment: as above; conditions: Homo sapiens, MCF7, continuous exposure 4 or 7 days, at least three experiments
Description: as §1, §2, §3

[15] = system: BT-20; experiment: as above; conditions: Homo sapiens, continuous exposure 4 or 7 days, at least three experiments
Description: as §1, §2, §3

[16] = system: UACC-893; experiment: as above; conditions: Homo sapiens, continuous exposure 4 or 7 days, at least three experiments
Description: as §1, §2, §3

[17] = system: HCC38; experiment: as above; conditions: Homo sapiens, continuous exposure 4 or 7 days, at least three experiments
Description: as §1, §2, §3

[18] = system: ZR-75-1; experiment: as above; conditions: Homo sapiens, continuous exposure 4 or 7 days, at least three experiments
Description: as §1, §2, §3

[19] = system: panel of 19 human breast cancer cell lines; experiment: Cell growth inhibition assay, whole panel; type: cell-based
Description: as §1
as §2, with “To expose the cells to test compounds for 7 days, medium was replaced with fresh medium containing compounds after 4 days of exposure and cells were incubated for 3 additional days.” left out
Antiproliferative effects of four tubulin-binding anticancer agents were evaluated by a methylene blue-based cell growth inhibin assay in a panel of 19 human breast cancer cell lines. […]

[20] = system: HCC1419; experiment: Cell growth inhibition assay (methylene blue-based); conditions: Homo sapiens, continuous exposure 4 or 7 days, at least three experiments

C=C1C[C@@H]2CC[C@@]34C[C@H]5O[C@H]6[C@@H](O3)C3O[C@H](CCC3O[C@H]6C5O4)CC(=O)CC3[C@H](CC4O[C@@H](CCC1O2)C[C@@H](C)C4=C)O[C@H](C[C@H](O)CN)[C@@H]3OC (stereo partly drawn) [E7389]
IC50 [1]: 1.8 nM | IC50 [2]: 1.14 nM | IC50 [3]: 0.29 nM | IC50 [4]: 0.63 nM | IC50 [5]: 0.37 nM | IC50 [6]: 0.53 nM | IC50 [7]: 0.56 nM | IC50 [8]: 0.45 nM | IC50 [9]: 1.17 nM | IC50 [10]: 0.74 nM | IC50 [11]: 0.65 nM | IC50 [12]: 0.43 nM | IC50 [13]: 1.75 nM | IC50 [14]: 1.45 nM | IC50 [15]: 0.82 nM | IC50 [16]: 0.31 nM | IC50 [17]: 0.4 nM | IC50 [18]: 1.19 nM | IC50 ([19]; Homo sapiens, range over the panel of 19 cell lines): 0.29 to 1.8 nM | fold-difference between IC50's in the most sensitive and the least sensitive cell line ([19]; panel of 19 breast cancer cell lines): 6.2 fold | IC50 [20]: 1.59 nM

Source: patent US20100190843A1, “Tubulin Isotype Screening in Cancer Therapy Using Halichondrin B Analogs” (Eisai R&D Management Co., Ltd., priority 2004, published 2010)
